Values joined by “and” are separate entries in the source; they are usually repeats but may differ in a detail not shown here. Identical values can stand only once. One block for each compound: values may come before it.
Test system: LG0703-F498-PDC complex spheroid growth
Assay: Anticancer human tumor LG0703-F498-PDC patient-derived lung adenocarcinoma cell line growth inhibition [AhR]
Conditions: for viability, T/C: stronger effect = lower value
Text: Multicellular complex tumor spheroid response to aryl hydrocarbon receptor antagonists in combination with a variety of drugs and investigational agents in selected tumor cell lines
The current study was undertaken to assess response to aryl hydrocarbon receptor antagonists in combination with standard-of-care drugs and investigational agents in solid tumor complex spheroid models. Complex spheroids include a stromal component modeled by human endothelial cells (HUVEC) and fibroblasts modeled by human mesenchymal stem cells (MSCs). The concentration ranges selected for each drug and investigational agent were based upon clinically achievable concentrations if the clinical Cmax of the agent was known.
Compounds. The drugs and investigational agents: BAY 2416964 (NSC825713), GNF351 (NSC835774), CH-223191 (NSC835775), CPI-455 (NSC825282), aza-TdCyd (NSC777586), decitabine (NSC127716), belinostat (NSC758774), entinostat (NSC756642), pevonedistat (NSC761192), tazemetostat (NSC777109), talazoparib (NSC765396), olaparib (NSC753686), selinexor (NSC780203), nedisertib (M3814, NSC802822), bortezomib (NSC756655), venetoclax (NSC766270), doxorubicin (NSC123127), elimusertib (BAY189344, NSC800525), ceralasertib (AZD6738, NSC777638), TAK-243 (NSC785004), alisertib (NSC759677), etoposide (NSC141540), topotecan (NSC609699), eribulin (NSC707389), gemcitabine (NSC613327), carboplatin (NSC241240), cisplatin (NSC119875), and SN-38 (NSC673596) were obtained from the National Cancer Institute (NCI) Developmental Therapeutics Program Chemical Repository (32). The FDA-approved anticancer drug set is available from the Developmental Therapeutics Program at https://dtp.cancer.gov/organization/dscb/obtaining/available plates.htm. […] The stock solutions were prepared in dimethyl sulfoxide (DMSO, Sigma-Aldrich, St. Louis, MO, cat. D2650), except for the platinum compounds which were prepared in saline (Quality Biological, Gaithersburg, MD, cat. 114-055-101), at 800-fold the tested concentration and stored at -70 degrees C prior to their use. All drugs and investigational agents were tested over a range starting from a high concentration at or near the clinical Cmax and decreasing in half-log increments. If the clinical Cmax for an agent had not been determined, the highest concentration tested was 10 microM (Table 1).
Cell Culture. All cells were maintained in an incubator at 37 degrees C and 5% CO2 with 95% humidity. The PDC lines were cultured according to standard operating procedures established by the NCI PDMR (https://pdmr.cancer.gov). Briefly, all PDCs were thawed and cultured in Matrigel-coated flasks prepared with a working solution of 1X Ham's F-12 nutrient mix, without supplementation (Invitrogen, Waltham, MA, cat. 11765054), 100 U/mL penicillin-streptomycin (Invitrogen, cat. 15140122), and 2.5% Matrigel (Corning Inc., Corning, NY, cat. 354248) for the first three passages. All PDCs were cultured in complete DMEM/F-12 media containing advanced DMEM/F-12 (Invitrogen, cat. 12634028), 4.9% defined fetal bovine serum, heat inactivated (HyClone Laboratories Inc., Logan, UT, cat. SH30070.03HI), 389 ng/mL hydrocortisone (Sigma-Aldrich, cat. H4001), 9.7 ng/mL human EGF recombinant protein (Invitrogen, cat. PHG0313), 23.4 microg/mL adenine (Sigma-Aldrich, cat. A2786), 97.3 U/mL penicillin-streptomycin (Invitrogen, cat. 15140122), 1.9 mM L-glutamine (Invitrogen, cat. 25030081), and 9.7 microM Y-27632 dihydrochloride (Tocris Bioscience, Bristol, United Kingdom, cat. 1254). The PDCs were cultured in complete DMEM/F12 media without 10 microM Y-27632 dihydrochloride for at least two passages prior to the screen. The established cell lines NCI-H1341 and […] were cultured in DMEM/F-12, HEPES (Invitrogen, cat. 11330032), 5% defined fetal bovine serum (HyClone Laboratories Inc., cat. SH30070.03), ITS premix universal culture supplement [insulin (5 microg/mL), transferrin (5 microg/mL), and selenious acid (5 ng/mL)] […]

[1] = curve of first compound, second compound 0.1 µM
[2] = curve of first compound, second compound 0.316 µM
[3] = curve of first compound, second compound 1 µM
[4] = curve of first compound, second compound 3.16 µM
[5] = curve of first compound, second compound 10 µM
[6] = second compound 0.1 µM, first compound 0.0316 µM
[7] = second compound 0.1 µM, first compound 0.1 µM
[8] = second compound 0.1 µM, first compound 0.316 µM
[9] = second compound 0.1 µM, first compound 1 µM
[10] = second compound 0.316 µM, first compound 0.0316 µM
[11] = second compound 0.316 µM, first compound 0.1 µM
[12] = second compound 0.316 µM, first compound 0.316 µM
[13] = second compound 0.316 µM, first compound 1 µM
[14] = second compound 1 µM, first compound 0.0316 µM
[15] = second compound 1 µM, first compound 0.1 µM
[16] = second compound 1 µM, first compound 0.316 µM
[17] = second compound 1 µM, first compound 1 µM
[18] = second compound 3.16 µM, first compound 0.0316 µM
[19] = second compound 3.16 µM, first compound 0.1 µM
[20] = second compound 3.16 µM, first compound 0.316 µM
[21] = second compound 3.16 µM, first compound 1 µM
[22] = second compound 10 µM, first compound 0.0316 µM
[23] = second compound 10 µM, first compound 0.1 µM
[24] = second compound 10 µM, first compound 0.316 µM
[25] = second compound 10 µM, first compound 1 µM
[26] = second compound 0.1 µM, first compound 0.00316 µM
[27] = second compound 0.1 µM, first compound 0.01 µM
[28] = second compound 0.316 µM, first compound 0.00316 µM
[29] = second compound 0.316 µM, first compound 0.01 µM
[30] = second compound 1 µM, first compound 0.00316 µM
[31] = second compound 1 µM, first compound 0.01 µM
[32] = second compound 3.16 µM, first compound 0.00316 µM
[33] = second compound 3.16 µM, first compound 0.01 µM
[34] = second compound 10 µM, first compound 0.00316 µM
[35] = second compound 10 µM, first compound 0.01 µM
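Also: luminescence taken as a proxy for viable cell amount.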
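For viability, T/C in this document: percent of DMSO vehicle control where 100% means growth equal to vehicle.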

IC50 [1]: > 10 µM
IC50 [2]: > 10 µM
IC50 [3]: > 10 µM
IC50 [4]: > 10 µM
IC50 [5]: > 10 µM
Compound: CC1COCCN1c1cc(C2(S(C)(=N)=O)CC2)nc(-c2ccnc3[nH]ccc23)n1 (centres undefined) + Cc1ccccc1N=Nc1ccc(NC(=O)c2ccnn2C)c(C)c1
viability, T/C [6]: 108%
viability, T/C [7]: 101%
viability, T/C [8]: 97%
viability, T/C [9]: 99.5%
viability, T/C (second compound 0.1 µM, first compound 3.16 µM): 94.8%
viability, T/C (second compound 0.1 µM, first compound 10 µM): 67.6%
viability, T/C [10]: 100%
viability, T/C [11]: 92.7%
viability, T/C [12]: 105%
viability, T/C [13]: 98%
viability, T/C (second compound 0.316 µM, first compound 3.16 µM): 95%
viability, T/C (second compound 0.316 µM, first compound 10 µM): 64.1%
viability, T/C [14]: 99.2%
viability, T/C [15]: 92.9%
viability, T/C [16]: 93.7%
viability, T/C [17]: 96.6%
viability, T/C (second compound 1 µM, first compound 3.16 µM): 82.1%
viability, T/C (second compound 1 µM, first compound 10 µM): 67.4%
viability, T/C [18]: 81.9%
viability, T/C [19]: 88.5%
viability, T/C [20]: 107%
viability, T/C [21]: 87.5%
viability, T/C (second compound 3.16 µM, first compound 3.16 µM): 68.6%
viability, T/C (second compound 3.16 µM, first compound 10 µM): 56.1%
viability, T/C [22]: 91.4%
viability, T/C [23]: 77.2%
viability, T/C [24]: 95.4%
viability, T/C [25]: 91.9%
viability, T/C (second compound 10 µM, first compound 3.16 µM): 79.7%
viability, T/C (second compound 10 µM, first compound 10 µM): 65.2%

IC50 [1]: > 0.1 µM
IC50 [2]: > 0.1 µM
IC50 [3]: > 0.1 µM
IC50 [4]: 0.0298 µM
IC50 [5]: < 0.000316 µM
Compound: CC[C@@]1(O)C(=O)OCc2c1cc1n(c2=O)Cc2cc3c(CN(C)C)c(O)ccc3nc2-1 + Cc1cncc(-c2nc(NCCc3c[nH]c4ccccc34)c3ncn(C(C)C)c3n2)c1
viability, T/C (second compound 0.1 µM, first compound 0.000316 µM): 96.8%
viability, T/C (second compound 0.1 µM, first compound 0.001 µM): 99.7%
viability, T/C [26]: 100%
viability, T/C [27]: 89.2%
viability, T/C [6]: 78.6%
viability, T/C [7]: 63.7%
viability, T/C (second compound 0.316 µM, first compound 0.000316 µM): 93%
viability, T/C (second compound 0.316 µM, first compound 0.001 µM): 105%
viability, T/C [28]: 102%
viability, T/C [29]: 87.5%
viability, T/C [10]: 63.9%
viability, T/C [11]: 55.4%
viability, T/C (second compound 1 µM, first compound 0.000316 µM): 97.5%
viability, T/C (second compound 1 µM, first compound 0.001 µM): 101%
viability, T/C [30]: 101%
viability, T/C [31]: 90.6%
viability, T/C [14]: 73%
viability, T/C [15]: 50.2%
viability, T/C (second compound 3.16 µM, first compound 0.000316 µM): 56.9%
viability, T/C (second compound 3.16 µM, first compound 0.001 µM): 67.9%
viability, T/C [32]: 56.6%
viability, T/C [33]: 57.6%
viability, T/C [18]: 48%
viability, T/C [19]: 38.3%
viability, T/C (second compound 10 µM, first compound 0.000316 µM): 1.34%
viability, T/C (second compound 10 µM, first compound 0.001 µM): 2.04%
viability, T/C [34]: 1.13%
viability, T/C [35]: 1.73%
viability, T/C [22]: 1.21%
viability, T/C [23]: 2.28%

IC50 (curve of compound): 0.628 µM and 0.828 µM and 0.812 µM
Compound: COc1cccc2c1C(=O)c1c(O)c3c(c(O)c1C2=O)CC(O)(C(=O)CO)CC3OC1CC(N)C(O)C(C)O1 (centres undefined)
viability, T/C (compound 0.0316 µM): 88% and 108% (2×)
viability, T/C (compound 0.1 µM): 82.8% and 79.7% and 87.9%
viability, T/C (compound 0.316 µM): 65.5% and 75.9% and 69.5%
viability, T/C (compound 1 µM): 40.7% and 49.1% and 47.5%
viability, T/C (compound 3.16 µM): 9.35% and 15.7% and 20.4%
viability, T/C (compound 10 µM): 0.71% and 0.83% and 1.09%

IC50 (curve of compound): 5.98 µM and 5.06 µM and 6.78 µM
Compound: COc1cc(Nc2ncc3c(n2)-c2ccc(Cl)cc2C(c2c(F)cccc2OC)=NC3)ccc1C(=O)O
viability, T/C (compound 0.0316 µM): 87.2% and 100% and 93.8%
viability, T/C (compound 0.1 µM): 81% and 83.4% and 82.2%
viability, T/C (compound 0.316 µM): 67.8% and 64.2% and 72.7%
viability, T/C (compound 1 µM): 76.2% and 77.1% and 73.1%
viability, T/C (compound 3.16 µM): 67% and 61% and 63.3%
viability, T/C (compound 10 µM): 37.5% and 36.6% and 41.4%

IC50 [1]: 0.514 µM
IC50 [2]: 0.678 µM
IC50 [3]: 0.306 µM
IC50 [4]: 0.406 µM
IC50 [5]: 0.592 µM
Compound: CC1COCCN1c1cc(-c2ccnn2C)c2ccnc(-c3ccn[nH]3)c2n1 (centres undefined) + Cc1ccccc1N=Nc1ccc(NC(=O)c2ccnn2C)c(C)c1
viability, T/C [26]: 88.3%
viability, T/C [27]: 88.5%
viability, T/C [6]: 82.4%
viability, T/C [7]: 72%
viability, T/C [8]: 56.3%
viability, T/C [9]: 41.5%
viability, T/C [28]: 98%
viability, T/C [29]: 110%
viability, T/C [10]: 90.6%
viability, T/C [11]: 73.1%
viability, T/C [12]: 58.4%
viability, T/C [13]: 45.6%
viability, T/C [30]: 94.4%
viability, T/C [31]: 79.8%
viability, T/C [14]: 91.6%
viability, T/C [15]: 73.6%
viability, T/C [16]: 50%
viability, T/C [17]: 38.4%
viability, T/C [32]: 92.8%
viability, T/C [33]: 79.7%
viability, T/C [18]: 69.7%
viability, T/C [19]: 78%
viability, T/C [20]: 49.3%
viability, T/C [21]: 37%
viability, T/C [34]: 86.6%
viability, T/C [35]: 81.7%
viability, T/C [22]: 97.2%
viability, T/C [23]: 72.9%
viability, T/C [24]: 59.8%
viability, T/C [25]: 42.8%
